Assay [1] relates to Drosophila melanogaster. To be noted: Canton-S, Mitochondria, 10 mM.
Description: Inhibition of cytochrome c oxidase in insecticide-susceptible Drosophila melanogaster Canton-S mitochondria at 10 mM using reduced cytochrome c as substrate by microplate spectrophotometer analysis
Assay [2] deals with Drosophila melanogaster. As to conditions: Hikone-R, Mitochondria, 10 mM.
Description: Inhibition of cytochrome c oxidase in insecticide-resistance Drosophila melanogaster Hikone-R mitochondria at 10 mM using reduced cytochrome c as substrate by microplate spectrophotometer analysis
Assay [3] deals with Drosophila melanogaster. Nature of the assay: Disruption of mitochondria in insecticide-susceptible Drosophila melanogaster Canton-S assessed as increase in cytochrome c release from mitochondria to cytosol at 1 mM by western blot analysis. Type of assay: functional, organism-based. For orientation: In western blotting, separated proteins are transferred to a membrane and probed.

A short description of assay [4]: Inhibition of cytochrome c oxidase in insecticide-resistance Drosophila melanogaster Hikone-R mitochondria using reduced cytochrome c as substrate by microplate spectrophotometer analysis.
Assay [5] deals with Drosophila melanogaster. Nature of the assay: Disruption of mitochondria in insecticide-susceptible Drosophila melanogaster Hikone-R assessed as increase in cytochrome c release from mitochondria to cytosol at 1 mM by western blot analysis. Type of assay: functional, organism-based.
A short description of assay [6]: Inhibition of cytochrome c oxidase in insecticide-susceptible Drosophila melanogaster Canton-S mitochondria using reduced cytochrome c as substrate by microplate spectrophotometer analysis.
For assay [7], the system named is Drosophila melanogaster. The assay is described as follows: Inhibition of cytochrome c oxidase in insecticide-susceptible Drosophila melanogaster Canton-S mitochondria at 100 mM using reduced cytochrome c as substrate by microplate spectrophotometer analysis.
The test system of assay [8] is Drosophila melanogaster. The assay is described as follows: Inhibition of cytochrome c oxidase in insecticide-resistance Drosophila melanogaster Hikone-R mitochondria at 100 mM using reduced cytochrome c as substrate by microplate spectrophotometer analysis.

The source made the active and inactive calls. No cut-off for these calls is given here.

For `O=C[O-].[Na+]` [SODIUM FORMATE], the inhibition in assay [1] and in assay [2] was 3% each time. Also, the outcome in assay [3] and in assay [5] was Active. The IC50 in assay [4] and in assay [6] was > 100 mM each time.
Turning to `CCCCCCOC=O`, the inhibition in assay [7] and in assay [8] was < 8% throughout. Besides, the result in assay [3] and in assay [5] was Active.
`[N-]=[N+]=[N-]` [SODIUM AZIDE]: the IC50 in assay [4] and in assay [6] was > 16 mM each time.
`CCCCOC=O`: the inhibition in assay [7] and in assay [8] was < 8% in each case. Also, the result in assay [3] and in assay [5] was Active.
For `COC=O`, the inhibition in assay [7] and in assay [8] was < 8% throughout. The result in assay [3] and in assay [5] was Active.
Regarding `O=COCCOC=O`, the inhibition in assay [7] and in assay [8] was < 8% in each case. Further, the result in assay [3] and in assay [5] was Active.
In the case of `CCOC=O`, the inhibition in assay [7] and in assay [8] was < 8% in each case. Moreover, the result in assay [3] and in assay [5] was Active.
Take `CC(C)(C)OC=O`: the inhibition in assay [7] and in assay [8] was < 8% throughout. Further, the result in assay [3] and in assay [5] was Active.
With `CCCCCC[C@H]1C(=O)O[C@H](C)[C@H](NC(=O)c2cccc(NC=O)c2O)C(=O)O[C@@H](C)[C@@H]1OC(=O)CC(C)C`, the result in assay [3] and in assay [5] was Active.
`C=C(C)[C@H]1Cc2c(ccc3c2O[C@@H]2COc4cc(OC)c(OC)cc4[C@@H]2C3=O)O1`: the outcome in assay [3] and in assay [5] was Active.
As to `CCC(=O)[O-].[Na+]` [SODIUM PROPIONATE], the IC50 in assay [4] and in assay [6] was > 100 mM in each case.
Take `CCCCCCCOC=O`: the inhibition in assay [7] and in assay [8] was < 8% throughout. Besides, the outcome in assay [3] and in assay [5] was Active.
As for `CC1(C)CNC(=NN=C(/C=C/c2ccc(C(F)(F)F)cc2)/C=C/c2ccc(C(F)(F)F)cc2)NC1` [HYDRAMETHYLNON], the IC50 – broadly, the point on the concentration scale where inhibition reaches its midpoint – came to 0.48 mM in assay [4] and 0.47 mM in assay [6].
Regarding `CCCOC=O`, the inhibition in assay [7] and in assay [8] was < 8% each time. The outcome in assay [3] and in assay [5] was Active.
For `CC(=O)[O-].[Na+]` [SODIUM ACETATE], the IC50 in assay [4] and in assay [6] was > 100 mM in each case.

These data come from ChEMBL document CHEMBL3045572, “Mitochondrial impacts of insecticidal formate esters in insecticide-resistant and insecticide-susceptible Drosophila melanogaster” (Pest Manag Sci, 2009).
